# Measured values from patent US10508077B2 (FORMA Therapeutics, Inc., priority 2015, dated 2019).
# Biological target: T1, Full length human recombinant HDAC8 protein (Homo sapiens, UniProt Q9BY41)
# T1 construct: Full length human recombinant HDAC8 protein was expressed in baculoviral system; made in house
# T1 sequence (Q9BY41 1-377): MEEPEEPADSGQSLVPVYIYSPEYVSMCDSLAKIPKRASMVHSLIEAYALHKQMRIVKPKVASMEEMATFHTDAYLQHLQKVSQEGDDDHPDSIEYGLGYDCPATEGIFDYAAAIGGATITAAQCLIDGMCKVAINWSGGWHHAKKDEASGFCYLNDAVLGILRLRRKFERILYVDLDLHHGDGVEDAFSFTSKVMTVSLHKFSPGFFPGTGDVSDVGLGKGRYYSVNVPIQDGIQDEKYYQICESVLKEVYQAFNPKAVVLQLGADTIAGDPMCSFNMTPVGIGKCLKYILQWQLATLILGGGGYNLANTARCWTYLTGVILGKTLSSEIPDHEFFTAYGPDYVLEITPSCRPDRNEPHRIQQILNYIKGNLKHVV
# Assay: In vitro histone deacetylase assay: enzymatic HDAC8 assay, electrophoretic mobility shift
# Format: biochemical
# Details: substrate RHKK(Ac)-NH2, 1 nM enzyme, compounds listed under IC50 range headings
# Summary of the method: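 Baculovirus-expressed full-length human HDAC8 (1 nM) deacetylated 2 µM fluorescent RHKK(Ac)-NH2 peptide in pH 7.5 HEPES, 1% DMSO, at 25 °C, with 12 compound concentrations at 3× spacing. SDS-quenched; product and substrate resolved by microfluidic electrophoresis, P/(S+P) converted to percent inhibition, and IC50 obtained by 4-parameter fit.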
row,SMILES,IC50 [nM]
1,"Cn1ccnc1S(=O)(=O)NC1CCN(c2ccccc2C=CC(=O)NO)CC1 [Example I-230, (E)-N-hydroxy-3-(2-(4-((1-methyl-1H-imidazole)-2-sulfonamido)-piperidin-1-yl)phenyl)acrylamide]",< 1000
2,"CC(C(=O)N1CCN(c2ccccc2/C=C/C(=O)NO)CC1)c1ccc(Cl)cc1 (centres unmarked) [Example I-291, (E)-3-(2-(4-(2-(4-chlorophenyl)propanoyl)piperazin-1-yl)phenyl)-N-hydroxyacrylamide]",< 1000
3,"O=C(/C=C/c1ccccc1N1CCC(NS(=O)(=O)Cc2cccc(Cl)c2)CC1)NO [Example I-229, (E)-3-(2-(4-(((3-chlorophenyl)methyl)sul-fonamido)piperidin-1-yl)phenyl)-N-hydroxyacrylamide]",< 1000
4,"O=C(/C=C/c1ccccc1NC(=O)Nc1cccc(C(F)(F)F)c1)NO [Example I-5, (E)-N-hydroxy-3-(2-(3-(3-(trifluoromethyl)phenyl)ureido)phenyl)acrylamide]",1000 to 10000
5,"O=C(/C=C/c1ccccc1NCc1ccc(-c2ccccc2)nc1)NO [Example I-99, (E)-N-hydroxy-3-(2-(((6-phenylpyridin-3-yl)methyl)amino)phenyl)acrylamide]",< 1000
6,"CS(=O)(=O)N1CCC(CC(=O)NC2CCN(c3ccccc3/C=C/C(=O)NO)CC2)CC1 [Example I-135, (E)-N-hydroxy-3-(2-(4-(2-(1-(methylsulfonyl)piperidin-4-yl)acetamido)piperidin-1-yl)phenyl)acrylamide]",< 1000
7,"O=C(/C=C/c1ccccc1N1CCC(NC(=O)CSc2ccc(F)cc2)CC1)NO [Example I-129, (E)-3-(2-(4-(2-((4-fluorophenyl)thio)acet-amido)piperidin-1-yl)phenyl)-N-hydroxyacrylamide]",< 1000
8,"O=C(/C=C/c1ccccc1N1CCN(C(=O)c2cc3ccccc3[nH]2)CC1)NO [Example I-25, (E)-3-(2-(4-(1H-indole-2-carbonyl)piperazin-1-yl)phenyl)-N-hydroxyacrylamide]",1000 to 10000
9,"O=C(/C=C/c1ccccc1N1CCN(C(=O)C2(C(F)(F)F)CC2)CC1)NO [Example I-322, (E)-N-hydroxy-3-(2-(4-(1-(trifluoromethyl)cyclopro-pane-1-carbonyl)piperazin-1-yl)phenyl)acrylamide]",< 1000
10,"O=C(/C=C/c1ccccc1N1CCN(C(=O)Cc2cccnc2)CC1)NO [Example I-295, (E)-N-hydroxy-3-(2-(4-(2-(pyridin-3-yl)acetyl)piperazin-1-yl)phenyl)acrylamide]",< 1000
11,"CC(C)c1ccc(C(=O)NC2CCN(c3ccccc3/C=C/C(=O)NO)CC2)nc1 [Example I-154, (E)-N-(1-(2-(3-(hydroxyamino)-3-oxoprop-1-en-1-yl)phenyl)piperidin-4-yl)-5-isopropylpicolinamide]",< 1000
12,O=C(/C=C/c1ccccc1N1CCC(NC(=O)c2ccc3[nH]nnc3c2)CC1)NO [Example I-161],< 1000
13,"O=C(/C=C/c1ccccc1N1CCC2(CCCNC2)CC1)NO [Example I-110, (E)-3-(2-(2,9-diazaspiro[5.5]undecan-9-yl)phenyl)-N-hydroxyacrylamide 2,2,2-trifluoroacetate]",< 1000
14,"O=C(/C=C/c1ccccc1N1CCC(NC(=O)c2ccc3cnccc3n2)CC1)NO [Example I-147, (E)-N-(1-(2-(3-(hydroxyamino)-3-oxoprop-1-en-1-yl)phenyl)piperidin-4-yl)-1,6-naphthyridine-2-carboxamide]",< 1000
15,"O=C(/C=C/c1ccccc1NCc1nc2ccccc2[nH]1)NO [Example I-39, (E)-3-(2-(((1H-benzo[d]imidazol-2-yl)methyl)amino)phenyl)-N-hydroxyacrylamide]",< 1000
16,"CC(Cc1ccccc1)C(=O)N1CCN(c2ccccc2/C=C/C(=O)NO)CC1 (centres unmarked) [Example I-297, (E)-N-hydroxy-3-(2-(4-(2-methyl-3-phenylpropanoyl)piperazin-1-yl)phenyl)acrylamide]",< 1000
17,"O=C(/C=C/c1ccccc1C(=O)N1CCC(F)(F)CC1)NO [II-17, (E)-3-(2-(4,4-difluoropiperidine-1-carbonyl)phenyl)-N-hydroxyacrylamide]",< 1000
18,"CC(C)N(C(=O)c1cccc(C(F)(F)F)c1)c1ccccc1/C=C/C(=O)NO [Example I-118, (E)-N-(2-(3-(hydroxyamino)-3-oxoprop-1-en-1-yl)phenyl)-N-isopropyl-3-(trifluoromethyl)benzamide]",< 1000
19,"COc1cncc(CN2CCN(c3ccccc3/C=C/C(=O)NO)CC2)c1 [Example I-169, (E)-N-hydroxy-3-(2-(4-((5-methoxypyridin-3-yl)methyl)piperazin-1-yl)phenyl)acrylamide]",< 1000

row,SMILES,IC50 [nM]
1,"O=C(/C=C/c1ccccc1N1CCC(NC(=O)Cc2cccs2)CC1)NO [Example I-128, (E)-N-hydroxy-3-(2-(4-(2-(thiophen-2-yl)acetamido)piperidin-1-yl)phenyl)acrylamide]",< 1000
2,"O=C(/C=C/c1ccccc1NC1CCN(Cc2ccc(F)cc2)C1)NO (centres unmarked) [Example I-330, (E)-3-(2-((1-(4-fluorobenzyl)pyrrolidin-3-yl)amino)phenyl)-N-hydroxyacrylamide]",< 1000
3,O=C(/C=C/c1ccccc1N1CCC(NC(=O)CC2CC2)CC1)NO [Example I-150],< 1000
4,"CC(C)(C)OC(=O)N1CCN(c2ccccc2/C=C/C(=O)NO)CC1 [Example I-58, tert-butyl (E)-4-(2-(3-(hydroxyamino)-3-oxoprop-1-en-1-yl)phenyl)piperazine-1-carboxylate]",< 1000
5,"CC(C)(C)OC(=O)N1CCC2(CCN(c3ccccc3/C=C/C(=O)NO)C2)C1 (centres unmarked) [Example I-112, tert-butyl (E)-7-(2-(3-(hydroxyamino)-3-oxoprop-1-en-1-yl)phenyl)-2,7-dizazspiro[4.4]nonane-2-carboxylate]",< 1000
6,"O=C(/C=C/c1ccccc1N1CCC(NS(=O)(=O)c2ccc(Cl)cc2)CC1)NO [Example I-223, (E)-3-(2-(4-((4-chlorophenyl)sulfonamido)piperidin-1-yl)phenyl)-N-hydroxyacrylamide]",< 1000
7,"CCCCCCN1CCN(c2ccccc2/C=C/C(=O)NO)CC1 [Example I-178, (E)-3-(2-(4-hexylpiperazin-1-yl)phenyl)-N-hydroxyacrylamide]",< 1000
8,"O=C(/C=C/c1ccccc1N1CCN(CC2CCOC2)CC1)NO (centres unmarked) [Example I-167, (E)-N-hydroxy-3-(2-(4-((tetrahydrofuran-3-yl)methyl)piperazin-1-yl)phenyl)acrylamide]",< 1000
9,"O=C(/C=C/c1ccccc1N1CCN(S(=O)(=O)c2cccc3cnccc23)CC1)NO [Example I-254, (E)-N-hydroxy-3-(2-(4-(isoquinolin-5-ylsulfonyl)piperazin-1-yl)phenyl)acrylamide]",< 1000
10,"CC(C)(C)OC(=O)NC1CCN(c2ccccc2/C=C/C(=O)NO)CC1 [Example I-60, tert-butyl (E)-(1-(2-(3-(hydroxyamino)-3-oxoprop-1-en-1-yl)phenyl)piperidin-4-yl)carbamate]",< 1000
11,Cc1c(C(=O)NC2CCN(c3ccccc3/C=C/C(=O)NO)CC2)cnn1-c1ccccc1 [Example I-16],1000 to 10000
12,"O=C(/C=C/c1ccccc1N1CCN(S(=O)(=O)c2ccc(CNC(=O)c3ccccc3)s2)CC1)NO [Example I-32, (E)-N-((5-((4-(2-(3-(hydroxyamino)-3-oxoprop-1-en-1-yl)phenyl)piperazin-1-yl)sulfonyl)thiophen-2-yl)methyl)benzamide]",1000 to 10000
13,"O=C(/C=C/c1ccccc1N1CCC(NC(=O)COc2ccc(Cl)cc2)CC1)NO [Example I-10, (E)-3-(2-(4-(2-(4-chlorophenoxy)acetami-do)piperidin-1-yl)phenyl)-N-hydroxyacrylamide]",1000 to 10000
14,"O=C(/C=C/c1ccccc1N1CCC(NS(=O)(=O)c2ccc(C(F)(F)F)cc2)CC1)NO [Example I-224, (E)-N-hydroxy-3-(2-(4-((4-(trifluoromethyl)phenyl)-sulfonamido)piperidin-1-yl)phenyl)acrylamide]",< 1000
15,"O=C(/C=C/c1ccccc1N1CCC(NS(=O)(=O)Cc2ccc(F)cc2)CC1)NO [Example I-228, (E)-3-(2-(4-(((4-fluorophenyl)methyl)sul-fonamido)piperidin-1-yl)phenyl)-N-hydroxyacrylamide]",< 1000
16,"Cc1cc(C(=O)N2CCN(c3ccccc3/C=C/C(=O)NO)CC2)n[nH]1 [Example I-198, (E)-N-hydroxy-3-(2-(4-(5-methyl-1H-pyrazole-3-carbonyl)piperazin-1-yl)phenyl)acrylamide]",< 1000
17,"O=C(/C=C/c1ccccc1NCc1nc2ccc(CCCO)cc2[nH]1)NO [Example I-116, (E)-N-hydroxy-3-(2-(((6-(3-hydroxypropyl)-1H-benzo[d]imidazol-2-yl)methyl)amino)phenyl)acrylamide]",< 1000
18,"O=C(/C=C/c1ccccc1N1CCN(C(=O)c2ccc(F)cn2)CC1)NO [Example I-202, (E)-3-(2-(4-(5-fluoropicolinoyl)piperazin-1-yl)phenyl)-N-hydroxyacrylamide]",< 1000
19,"O=C(/C=C/c1ccccc1N1CCC(NC(=O)CCN2CCCC2=O)CC1)NO [Example I-137, (E)-N-hydroxy-3-(2-(4-(3-(2-oxopyrrolidin-1-yl)propanamido)piperidin-1-yl)phenyl)acrylamide]",< 1000
